The experiment has as its system Mycobacterium tuberculosis H37Rv growth inhibition, no glycerol. Briefly: Confirmatory growth inhibition assay, Mycobacterium tuberculosis H37Rv, absence of glycerol (AID 449764).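 On all read-outs here: growth read after 7 days of incubation.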 As to conditions: for IC90: measured here: IC90 growth inhibition.

The IC50 is the concentration that inhibits the measured activity by half. The term IC90 denotes the point of the concentration-response curve where the effect stands at 90%. High values mean a need for much substance, low ones an effect from little substance.

Regarding `COc1cc(C)c(/C=C/C(C)=C/C=C/C(C)=C/C(=O)O)c(C)c1C`, the 50% inhibitory concentration (IC50) was 24.7 µM and the 90% effect concentration (IC90) amounted to 43.5 µM.

As for `CC(C)(C)c1ccc(C(O)CCCN2CCC(C(O)(c3ccccc3)c3ccccc3)CC2)cc1` (stereo not drawn), the IC50 is 12 µM and the IC90 came out at 13.7 µM.

For `Nc1cc(Cl)c2nonc2c1[N+](=O)[O-]`, the IC50 is 9.11 µM and the 90% effect concentration (IC90) is 11.7 µM.

For `CN(C)CCOc1ccc(-c2c(-c3ccsc3)sc3ccccc23)cc1`, the half-maximal inhibitory concentration (IC50) is 15.4 µM and the 90% effect concentration (IC90) was 21 µM.

As to `CCN1C(N(C)CCc2c[nH]c3ccccc23)=N[C@@H](c2cccc(C(F)(F)F)c2)C(C(=O)OC)=C1C`, the half-inhibitory concentration (IC50) is 22 µM and the IC90 came out at 25 µM.

As for `O=C(Oc1c(Cl)cc(Cl)c2cccnc12)c1cccs1`, the IC50 is 1.28 µM and the IC90 was 1.38 µM.

In the case of `Cc1cc(-c2n[nH]c(=S)n2/N=C/C(Br)=C/c2ccccc2)n[nH]1`, the concentration for half-maximal inhibition (IC50) is 5.55 µM and the 90% effect concentration (IC90) came out at 8.35 µM.

As for `COc1cc(NC(=O)C/C(C)=N/NC(=O)c2ccccn2)c(OC)cc1Cl`, the 50% inhibitory concentration (IC50) was 5.83 µM and the IC90 came to 9.98 µM.

`COc1cc(C#Cc2c(-c3cncn3C)n(C)c3ccc(-c4cnc(N5CCOCC5)nc4)cc23)cc(OC)c1`: the IC50 is 49.5 µM and the IC90 was 55 µM.

Turning to `CCOc1ccc(-c2cc(C)[n+](CCc3ccc(OC)c(OC)c3)c(-c3ccc(OCC)cc3)c2)cc1`, the 50% inhibitory concentration (IC50) is 1.66 µM and the 90% effect concentration (IC90) is 2.52 µM.

As for `COc1ccccc1/C(C)=N/NC(=S)NCc1ccccc1`, the half-maximal inhibitory concentration (IC50) was 23.6 µM and the IC90 was 27.1 µM.

On to `O=c1c(Cl)c2oc3ccccc3nc-2c2ccccc12`, for which the IC50 is 12.1 µM and the concentration for an effect of 90% (IC90) came out at 17.9 µM.

Consider `Cc1ncsc1CCOC(=O)c1ccc([N+](=O)[O-])cc1`, for which the half-maximal inhibitory concentration (IC50) was 20.1 µM and the 90% effect concentration (IC90) stood at 37.2 µM.

`COc1ccc(NC(=O)CSc2nnc(-c3ccccn3)n2N)cc1Cl`: the half-inhibitory concentration (IC50) was 55.6 µM and the IC90 is over 100 µM.

In the case of `C/C(O)=C\c1nc2ccccc2oc1=O`, the IC50 was 0.75 µM and the concentration for an effect of 90% (IC90) was determined as 0.89 µM.

Consider `CCN(CC)c1ccc(N)cc1`, for which the IC50 was 8.96 µM and the 90% effect concentration (IC90) was found to be 11.2 µM.

For `CCCOc1ccc2c(c1)C(=NN=C(N)N)c1cc(OCCC)ccc1-2`, the IC50 was 11.1 µM and the IC90 worked out at 18.1 µM.

`C/C(=N/Nc1ccnc2cc(Cl)ccc12)c1ccc(O)cc1`: the IC50 was 30.1 µM and the IC90 stood at 36.2 µM.

As to `O=C(c1ccccc1)C1CN(Cc2ccccc2)CCC1(O)c1ccccc1` (stereo not drawn), the half-maximal inhibitory concentration (IC50) was 16.3 µM and the IC90 came out at 21.8 µM.

As for `CCOC(=O)c1nn(-c2ccc(C)c(C)c2)cc1O`, the IC50 is 99.8 µM and the concentration for an effect of 90% (IC90) was over 100 µM.

For `CCCc1cc(=O)n2[nH]c(C)c(-c3ccc(Cl)cc3)c2n1`, the IC50 is 11.5 µM and the concentration for an effect of 90% (IC90) turned out to be 13.2 µM.

With `Cc1ccc(NC(=O)C2=C(O)CCn3c2nc2ccccc23)cc1`, the IC50 is 13.5 µM and the IC90 is over 100 µM.

As for `Cn1c2ccccc2c2cc(C(=O)NNC(=O)CCl)sc21`, the 50% inhibitory concentration (IC50) was 4.41 µM and the IC90 is 8.11 µM.

As to `O=c1[nH]c(CSc2cccc[n+]2[O-])nc2ccccc12`, the half-inhibitory concentration (IC50) is 89.1 µM and the IC90 amounted to 99.6 µM.

For the compound `O[C@@H](c1cc(C(F)(F)F)nc2c(C(F)(F)F)cccc12)[C@H]1CCCCN1`, the half-inhibitory concentration (IC50) was 22.7 µM and the IC90 came out at 25.5 µM.

For `C/C(=C\C(=S)Nc1ccccc1)Nc1ccc2ccccc2c1`, the IC50 is 37.8 µM and the concentration for an effect of 90% (IC90) is 50.8 µM.

For `CC1CCN(c2nc(Cl)nc(Nc3ccc([N+](=O)[O-])cc3)n2)CC1`, the IC50 was 78.9 µM and the 90% effect concentration (IC90) is over 100 µM.

Regarding `c1ccc(CCN2CCN(c3ncnc4c3cnn4-c3ccccc3)CC2)cc1`, the IC50 was 47.7 µM and the IC90 turned out to be 91.1 µM.

On to `C/C(Cl)=C\COc1cc(C)nc2c(Br)cccc12`, for which the half-maximal inhibitory concentration (IC50) was 21.2 µM and the IC90 was 24.4 µM.

Regarding `CCOC(=O)CSc1nn(-c2ccccc2)c(=S)s1`, the IC50 was 6.12 µM and the IC90 stood at 6.9 µM.

In the case of `Cc1ccnc(N2CCC(C(=O)Nc3cccc(C(F)(F)F)c3)CC2)n1`, the half-inhibitory concentration (IC50) was 46.3 µM and the IC90 is over 50 µM.

As for `O=S(=O)(Nc1ccc2[nH]ncc2c1)c1ccccc1Cl`, the IC50 was 11.3 µM and the IC90 was found to be 17.1 µM.

Regarding `CCc1c(C)sc2nc3c(C(=O)N4CCOCC4)cc(C(=O)c4cc(F)ccc4O)cn3c(=O)c12`, the half-maximal inhibitory concentration (IC50) was 82.2 µM and the IC90 was over 100 µM.

Regarding `CC(OC(=O)c1cc(Cl)ccc1[N+](=O)[O-])C(=O)NC(C)c1ccc(F)cc1` (stereo not drawn), the 50% inhibitory concentration (IC50) was 27.6 µM and the 90% effect concentration (IC90) was over 100 µM.

`CN1CCN(c2c(F)cc3c(=O)c(C(=O)O)cn4c3c2OCN4C)CC1`: the 50% inhibitory concentration (IC50) is 0.72 µM and the concentration for an effect of 90% (IC90) was determined as 0.93 µM.

Turning to `Cc1ccc(-c2c[n+](CC(=O)N3c4ccccc4Sc4ccccc43)c3n2CCC3)cc1`, the half-inhibitory concentration (IC50) is 22.9 µM and the IC90 worked out at 26.1 µM.

As to `CC1=NN(c2ccc(C)c(C)c2)C(=O)/C1=C\C=C\c1ccc([N+](=O)[O-])o1`, the IC50 was 10.9 µM and the IC90 came to 17.7 µM.

Consider `CCCCCC(=O)N/N=C(\C)c1ccccn1`, for which the half-maximal inhibitory concentration (IC50) is 29 µM and the IC90 turned out to be 38.9 µM.

Consider `COc1ccc(N2CCN(C(=O)c3cc4c(C)nc5ccccc5c4o3)CC2)cc1`, for which the half-maximal inhibitory concentration (IC50) was 81.3 µM and the IC90 was over 100 µM.

For `Brc1ccc(-c2nc3ncccn3c2Nc2ccc3c(c2)OCCO3)o1`, the 50% inhibitory concentration (IC50) is 90.7 µM and the concentration for an effect of 90% (IC90) is over 100 µM.

Turning to `CCOC(=O)CSc1nnc(-c2c[nH]c3ccccc23)o1`, the concentration for half-maximal inhibition (IC50) was 8.61 µM and the IC90 amounted to 22.1 µM.

`COc1ccc2c(c1)[C@@H]1[C@H](CO2)[C@H](c2ccccc2)[C@]2(C)C(=O)Nc3ccc(C)cc3C(=O)N12`: the IC50 was 71.1 µM and the IC90 is over 100 µM.

As to `O=C(Nc1ccc(Cl)cc1)N1CCN(c2ccc3nnc(-c4ccc(F)cc4)n3n2)CC1`, the half-maximal inhibitory concentration (IC50) was 18.9 µM and the IC90 is 51.8 µM.

With `COc1ccccc1C(=O)NNC(=O)C(=O)NCc1ccccc1`, the IC50 is 22.8 µM and the 90% effect concentration (IC90) was 40.6 µM.

For `CCOC(=O)c1c(C)[nH]c(N=Nc2ccc(OC)cc2)c1C`, the IC50 is 11.3 µM and the IC90 was over 25 µM.

As to `O=C(OCn1nnc2ccccc2c1=O)C1CCCCC1`, the 50% inhibitory concentration (IC50) was 5.88 µM and the IC90 worked out at 6.69 µM.

With `COC(=O)c1ccc(CSc2nc(C(F)(F)F)c3c(c2C#N)CCC3)o1`, the concentration for an effect of 90% (IC90) was over 100 µM.

`O=c1oc2ccccc2c(Nc2ccccc2O)c1[N+](=O)[O-]`: the IC50 is 9.46 µM and the concentration for an effect of 90% (IC90) was 13.9 µM.

As for `CCn1c2ccccc2c2cc(CN3CCN(Cc4cc(OC)ccc4O)CC3)ccc21`, the IC50 is 17.2 µM and the 90% effect concentration (IC90) was 23.4 µM.

For `COc1ccc2nc(N=NC3=C(O)CC(C)(C)CC3=O)sc2c1`, the half-maximal inhibitory concentration (IC50) is 13.5 µM and the 90% effect concentration (IC90) was 17.2 µM.

For `CSCCCNC(=S)N1CCN(c2ccc(C(C)=O)cc2)CC1`, the half-inhibitory concentration (IC50) was 37.2 µM and the IC90 was determined as 49.7 µM.

Regarding `O=C(CNC(=O)c1ccco1)OCc1ccc(C(=O)Oc2ccccc2)cc1`, the IC50 was 16.6 µM and the 90% effect concentration (IC90) is 26.6 µM.

For the compound `CC/C(C)=N/NC(=S)NCc1ccco1`, the IC50 is 81.1 µM and the concentration for an effect of 90% (IC90) is 91.7 µM.

Turning to `COc1ccccc1NC(=O)c1ccc(NC(=O)CSc2nnnn2C)cc1`, the IC50 was 11.7 µM and the concentration for an effect of 90% (IC90) came out at 21.6 µM.

Consider `CCOC(=O)c1ccc(NC(=S)NCCc2ccc(F)cc2)cc1`, for which the half-inhibitory concentration (IC50) is 75.3 µM and the concentration for an effect of 90% (IC90) is over 100 µM.

`O=[N+]([O-])c1ccc(S(=O)(=O)c2ccccc2)nc1`: the IC50 is 1.76 µM and the 90% effect concentration (IC90) is 2.98 µM.

On to `CCc1cc2c(=O)n(C(C)C(=O)OC3CCCCC3)cnc2s1` (stereo not drawn), for which the IC50 is 24.1 µM and the IC90 worked out at 52 µM.

For `Oc1ccccc1/C=N/Nc1ccnc(SCc2ccccc2)n1`, the half-inhibitory concentration (IC50) is 2.69 µM and the IC90 came out at 2.95 µM.

As to `Cc1ccc(NCc2ccc(O)c3ncccc23)cc1C`, the IC50 is 96.3 µM and the IC90 is over 100 µM.

`COc1cc(OC)nc(-n2ncc(Br)c(Br)c2=O)n1`: the IC50 was 22.5 µM and the concentration for an effect of 90% (IC90) was determined as 25.1 µM.

Take `CC1=CC(=O)c2c(O)ccc(O)c2C1=O`: the concentration for half-maximal inhibition (IC50) is 5.64 µM and the 90% effect concentration (IC90) is 7.87 µM.

In the case of `CC(C)(C)NC(=O)[C@@H]1C[C@@H]2CCCC[C@@H]2CN1C[C@@H](O)[C@H](Cc1ccccc1)NC(=O)[C@H](CC(N)=O)NC(=O)c1ccc2ccccc2n1`, the half-maximal inhibitory concentration (IC50) was 32.9 µM and the IC90 was determined as 52.8 µM.

Turning to `CCn1cc([N+](=O)[O-])c(C(=O)N2N=C(c3ccc4ccccc4c3)CC2c2ccccc2O)n1` (stereo not drawn), the half-inhibitory concentration (IC50) was 50.1 µM and the IC90 was over 100 µM.

In the case of `Cc1cc(=O)n2cccc(O)c2n1`, the IC50 is 11.8 µM and the IC90 is 21.5 µM.

As to `C=CCOc1ccc(C2C(C#N)=C(N)N(Nc3ccccc3)C3=C2C(=O)CC(C)(C)C3)cc1OC` (stereo not drawn), the IC50 is 41.3 µM and the 90% effect concentration (IC90) was over 100 µM.

In the case of `Cc1ccc(C#CC[N+]2(CC#Cc3ccc(C)cc3)CCCCC2)cc1`, the concentration for half-maximal inhibition (IC50) was 21.4 µM and the IC90 was 24.8 µM.

With `O=C(NC1CCN(C(=O)N2c3ccccc3Sc3ccccc32)CC1)c1ccccc1F`, the 90% effect concentration (IC90) is over 100 µM.

With `CC(C)(C)c1ccc(OCCC(=O)OCC(=O)NC(=O)NC2CCCC2)cc1`, the 50% inhibitory concentration (IC50) is 11.8 µM and the IC90 is 18.9 µM.

`O=S1(=O)N(CCN2CC=C(c3c[nH]c4cc(F)ccc34)CC2)c2cccc3c2N1CCC3`: the half-inhibitory concentration (IC50) is 11.2 µM and the IC90 worked out at 12.3 µM.

As for `O=C(OCc1ccc([N+](=O)[O-])cc1)c1cc2ccccc2oc1=O`, the half-maximal inhibitory concentration (IC50) was 12 µM and the IC90 was over 100 µM.

Turning to `CCN(CC)S(=O)(=O)c1ccc2oc(SCC(=O)Nc3cc(C)on3)nc2c1`, the half-inhibitory concentration (IC50) is 10.8 µM and the concentration for an effect of 90% (IC90) was 16.6 µM.

`CC(=O)Oc1ccc(/C=N\NC(=O)c2cc3c(ccc4ccccc43)o2)cc1` gave an IC90 of over 100 µM.

For `Clc1ccc(-c2[nH]ncc2N=Nc2ccccc2)cc1`, the half-maximal inhibitory concentration (IC50) was 63.1 µM and the IC90 is over 100 µM.

For the origin of these results see PubChem BioAssay AID449764 (Southern Research Specialized Biocontainment Screening …, 2010).
